SMILES strings stand for the structures. Where a SMILES comes first, the peptide text is derived from it. Bridges are numbered along the chain shown (N, C = ends).

The record followed here is article PMC2453235, “Identification and Rational Redesign of Peptide Ligands to CRIP1, A Novel Biomarker for Cancers” (PLoS Computational Biology, 2008).

For test [1], the target named is T1, CRIP1 (Homo sapiens, UniProt P50238).
T1 construct: enterokinase cleavage site and vector linker residues (N); made in house; host or cells: E. coli (pHAT10-CRIP1, IPTG induction)
T1 sequence (P50238 1-77): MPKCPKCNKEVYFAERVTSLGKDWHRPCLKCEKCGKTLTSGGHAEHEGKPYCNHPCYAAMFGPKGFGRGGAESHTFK
Description: Saturation binding of FITC-labeled peptides. The following applies: ΔΔG = RT ln K d,A1M − RT ln K d,A1, from apparent dissociation constants. From the text:
We computationally redesigned A1 resulting in a peptide with a new sequence (denoted as A1M) predicted to bind to CRIP1 with higher affinity. To test this prediction, A1, B5 and A1M peptides were all synthesized and labeled with FITC for binding studies. Since the peptides encoded by the C7C phage library are at the N-terminus of the minor phage coat protein pIII followed by a short phage encoded spacer Gly-Gly-Gly-Ser, we included this 4-mer in the synthesized peptide. An additional C-terminal Lys was also included in order to enable fluorescent labeling of the peptide. […] We synthesized the cyclic form of the peptides, A1, B5 and A1M and determined their ability to bind CRIP1 using saturation binding experiments. […] To directly compare the affinity of the A1 and A1M peptides for CRIP1 protein, we performed a competitive binding assay and determined the IC50 for each of the peptides using FITC-A1M as the ligand. […]
The binding affinity of the peptides for CRIP1 protein was determined by saturation binding experiments,[55]. […] The fluorescence intensity in each well was determined on Infinite M200 Tecan Instrument (Tecan, NC) (Excitation wavelength: 494 nm, Emission wavelength: 530 nm). The apparent equilibrium dissociation constant, K d,apparent, was calculated by non-linear regression using GraphPad Prism (GraphPad Prism 4.0 Software, San Diego, CA). […]

The target in test [2] is T1, CRIP1. Nature of the test: Competitive binding assay against FITC-A1M. The following applies: A1M vs A1, competing for FITC-A1M binding, from IC50. How it is done:
The binding affinity of the A1 and A1M peptides for CRIP1 protein was directly compared by a competitive binding experiment,[56]. Labeled A1M peptide (FITC-A1M) was competed with increasing concentrations of either unlabeled A1M peptides or A1 peptide and the IC50 for each peptide calculated.
Ninety-six well plates were coated with 150 µl of PBS buffer containing 100 µg/ml of CRIP1 and incubated overnight at 4°C. The wells were then washed 3 times with 50 mM Tris, 150 mM NaCl, pH 7.5 (TBS) containing 0.1% Tween-20 (TBST), and then each well filled completely with blocking buffer (TBS containing 0.5% BSA), incubated at least 1 hour at 4°C, and then rapidly washed 3 times with TBST. Following washing 150 µl of binding buffer containing FITC-A1M peptides of 10 µM and appropriate dilutions of unlabeled A1 and A1M peptides (ranging from 0 to 300 µM) were added to the CRIP1 containing wells and incubated for 1 hour at 37°C with rocking. After incubation, the plates were washed three times with binding buffer. The fluorescence intensity in each well was determined on Infinite M200 Tecan Instrument (Tecan, NC) (Excitation wavelength: 494 nm, Emission wavelength: 530 nm). Ki was calculated by non-linear regression with one binding site using GraphPad Prism (GraphPad Prism 4.0 Software, San Diego, CA). […]

As for `CC(C)C[C@@H]1NC(=O)[C@@H](N)CSSC[C@@H](C(=O)NCC(=O)NCC(=O)NCC(=O)N[C@@H](CO)C(=O)N[C@@H](CCCCN)C(N)=O)NC(=O)CNC(=O)[C@H](CCCCN)NC(=O)CNC(=O)CNC(=O)CNC(=O)[C@H](CC(=O)O)NC1=O` [A1M] (H-CLDGGGKGCGGGSK-NH2; disulfide 1-9; N-terminus assumed), the “experimental free energy change ΔΔG” value in test [1] was -1.6 kcal/mol. Also, the “binding affinity relative to A1 (fold better)” value in test [2] is recorded as “approximately 27.5 times”.
